# ChEMBL document CHEMBL4765227, “Hit to lead optimization of a series of N-[4-(1,3-benzothiazol-2-yl)phenyl]acetamides as monoacylglycerol lipase inhibitors with potential anticancer activity” (Eur J Med Chem, 2016)
# Columns and labels:
# Type in all cases: functional
# Conditions in all cases: read-out: GI
# UACC-62 = assay: Growth inhibition of human UACC-62 cells at 10 uM incubated for 48 hrs by sulforhodamine B assay relative to control
# OVCAR-5 = assay: Growth inhibition of human OVCAR-5 cells at 10 uM incubated for 48 hrs by sulforhodamine B assay relative to control
# U-251 = assay: Growth inhibition of human U-251 cells at 10 uM incubated for 48 hrs by sulforhodamine B assay relative to control
# SK-MEL-5 = assay: Growth inhibition of human SK-MEL-5 cells at 10 uM incubated for 48 hrs by sulforhodamine B assay relative to control
# RXF 393 = assay: Growth inhibition of human RXF 393 cells at 10 uM incubated for 48 hrs by sulforhodamine B assay relative to control
# HCT-116 = assay: Growth inhibition of human HCT-116 cells at 10 uM incubated for 48 hrs by sulforhodamine B assay relative to control
# M14 = assay: Growth inhibition of human M14 cells at 10 uM incubated for 48 hrs by sulforhodamine B assay relative to control
# RPMI-8226 = assay: Growth inhibition of human RPMI-8226 cells at 10 uM incubated for 48 hrs by sulforhodamine B assay relative to control
# DU-145 = assay: Growth inhibition of human DU-145 cells at 10 uM incubated for 48 hrs by sulforhodamine B assay relative to control
# CAKI-1 = assay: Growth inhibition of human CAKI-1 cells at 10 uM incubated for 48 hrs by sulforhodamine B assay relative to control
# HT-29 = assay: Growth inhibition of human HT-29 cells at 10 uM incubated for 48 hrs by sulforhodamine B assay relative to control
# CCRF-CEM = assay: Growth inhibition of human CCRF-CEM cells at 10 uM incubated for 48 hrs by sulforhodamine B assay relative to control
# COLO 205 = assay: Growth inhibition of human COLO 205 cells at 10 uM incubated for 48 hrs by sulforhodamine B assay relative to control
# MOLT-4 = assay: Growth inhibition of human MOLT-4 cells at 10 uM incubated for 48 hrs by sulforhodamine B assay relative to control
# SNB-19 = assay: Growth inhibition of human SNB-19 cells at 10 uM incubated for 48 hrs by sulforhodamine B assay relative to control
# UACC-257 = assay: Growth inhibition of human UACC-257 cells at 10 uM incubated for 48 hrs by sulforhodamine B assay relative to control
# NCI/ADR-RES = assay: Growth inhibition of human NCI/ADR-RES cells at 10 uM incubated for 48 hrs by sulforhodamine B assay relative to control
# MCF7 = assay: Growth inhibition of human MCF7 cells at 10 uM incubated for 48 hrs by sulforhodamine B assay relative to control
# HCT-15 = assay: Growth inhibition of human HCT-15 cells at 10 uM incubated for 48 hrs by sulforhodamine B assay relative to control
# NCI-H226 = assay: Growth inhibition of human NCI-H226 cells at 10 uM incubated for 48 hrs by sulforhodamine B assay relative to control
# HCC 2998 = assay: Growth inhibition of human HCC 2998 cells at 10 uM incubated for 48 hrs by sulforhodamine B assay relative to control
# SK-OV-3 = assay: Growth inhibition of human SK-OV-3 cells at 10 uM incubated for 48 hrs by sulforhodamine B assay relative to control
# TK-10 = assay: Growth inhibition of human TK-10 cells at 10 uM incubated for 48 hrs by sulforhodamine B assay relative to control
# LOX IMVI = assay: Growth inhibition of human LOX IMVI cells at 10 uM incubated for 48 hrs by sulforhodamine B assay relative to control
# Hs-578T = assay: Growth inhibition of human Hs-578T cells at 10 uM incubated for 48 hrs by sulforhodamine B assay relative to control
# HL-60(TB) = assay: Growth inhibition of human HL-60(TB) cells at 10 uM incubated for 48 hrs by sulforhodamine B assay relative to control
# MDA-MB-468 = assay: Growth inhibition of human MDA-MB-468 cells at 10 uM incubated for 48 hrs by sulforhodamine B assay relative to control
# HOP-92 = assay: Growth inhibition of human HOP-92 cells at 10 uM incubated for 48 hrs by sulforhodamine B assay relative to control
# SNB-75 = assay: Growth inhibition of human SNB-75 cells at 10 uM incubated for 48 hrs by sulforhodamine B assay relative to control
# A549 = assay: Growth inhibition of human A549/ATCC cells at 10 uM incubated for 48 hrs by sulforhodamine B assay relative to control
# T47D = assay: Growth inhibition of human T47D cells at 10 uM incubated for 48 hrs by sulforhodamine B assay relative to control
# PC-3 = assay: Growth inhibition of human PC-3 cells at 10 uM incubated for 48 hrs by sulforhodamine B assay relative to control
# SR = assay: Growth inhibition of human SR cells at 10 uM incubated for 48 hrs by sulforhodamine B assay relative to control
# HOP-62 = assay: Growth inhibition of human HOP-62 cells at 10 uM incubated for 48 hrs by sulforhodamine B assay relative to control
# SF-295 = assay: Growth inhibition of human SF-295 cells at 10 uM incubated for 48 hrs by sulforhodamine B assay relative to control
# Malme-3M = assay: Growth inhibition of human Malme-3M cells at 10 uM incubated for 48 hrs by sulforhodamine B assay relative to control
# OVCAR-3 = assay: Growth inhibition of human OVCAR-3 cells at 10 uM incubated for 48 hrs by sulforhodamine B assay relative to control
# IGROV-1 = assay: Growth inhibition of human IGROV-1 cells at 10 uM incubated for 48 hrs by sulforhodamine B assay relative to control
# SF-268 = assay: Growth inhibition of human SF-268 cells at 10 uM incubated for 48 hrs by sulforhodamine B assay relative to control
# BT-549 = assay: Growth inhibition of human BT-549 cells at 10 uM incubated for 48 hrs by sulforhodamine B assay relative to control
# ACHN = assay: Growth inhibition of human ACHN cells at 10 uM incubated for 48 hrs by sulforhodamine B assay relative to control
# 786-0 = assay: Growth inhibition of human 786-0 cells at 10 uM incubated for 48 hrs by sulforhodamine B assay relative to control
# OVCAR-4 = assay: Growth inhibition of human OVCAR-4 cells at 10 uM incubated for 48 hrs by sulforhodamine B assay relative to control
# SK-MEL-28 = assay: Growth inhibition of human SK-MEL-28 cells at 10 uM incubated for 48 hrs by sulforhodamine B assay relative to control
compound,measurement,setting,value
O=C(CNc1nnc(-c2ccc(Cl)cc2)o1)Nc1ccc(-c2nc3ccccc3s2)cc1,inhibition of growth at 10 µM,UACC-62,13.9%
same,inhibition of growth at 10 µM,OVCAR-5,-16.4%
same,inhibition of growth at 10 µM,U-251,18.4%
same,inhibition of growth at 10 µM,SK-MEL-5,7.93%
same,inhibition of growth at 10 µM,RXF 393,-0.2%
same,inhibition of growth at 10 µM,HCT-116,10.2%
same,inhibition of growth at 10 µM,M14,-1.85%
same,inhibition of growth at 10 µM,RPMI-8226,4.61%
same,inhibition of growth at 10 µM,DU-145,1.53%
same,inhibition of growth at 10 µM,CAKI-1,-0.31%
same,inhibition of growth at 10 µM,HT-29,4.3%
same,inhibition of growth at 10 µM,CCRF-CEM,46.7%
same,inhibition of growth at 10 µM,COLO 205,-4.34%
same,inhibition of growth at 10 µM,MOLT-4,66.8%
same,inhibition of growth at 10 µM,SNB-19,9.4%
same,inhibition of growth at 10 µM,UACC-257,-2.8%
same,inhibition of growth at 10 µM,NCI/ADR-RES,1.07%
same,inhibition of growth at 10 µM,MCF7,65.5%
same,inhibition of growth at 10 µM,HCT-15,10.4%
same,inhibition of growth at 10 µM,NCI-H226,17.1%
same,inhibition of growth at 10 µM,HCC 2998,6.46%
same,inhibition of growth at 10 µM,SK-OV-3,-16.6%
same,inhibition of growth at 10 µM,TK-10,8.25%
same,inhibition of growth at 10 µM,LOX IMVI,143%
same,inhibition of growth at 10 µM,Hs-578T,3.06%
same,inhibition of growth at 10 µM,HL-60(TB),6.27%
same,inhibition of growth at 10 µM,MDA-MB-468,110%
same,inhibition of growth at 10 µM,HOP-92,12.1%
same,inhibition of growth at 10 µM,SNB-75,14.2%
same,inhibition of growth at 10 µM,A549,4.18%
same,inhibition of growth at 10 µM,T47D,20.1%
same,inhibition of growth at 10 µM,PC-3,11.4%
same,inhibition of growth at 10 µM,SR,28.2%
same,inhibition of growth at 10 µM,HOP-62,-6.78%
same,inhibition of growth at 10 µM,SF-295,-1.52%
same,inhibition of growth at 10 µM,Malme-3M,11.3%
same,inhibition of growth at 10 µM,OVCAR-3,2.27%
same,inhibition of growth at 10 µM,IGROV-1,5.85%
same,inhibition of growth at 10 µM,SF-268,22.6%
same,inhibition of growth at 10 µM,BT-549,13%
same,inhibition of growth at 10 µM,ACHN,-12%
same,inhibition of growth at 10 µM,786-0,-1.02%
same,inhibition of growth at 10 µM,OVCAR-4,-3.22%
same,inhibition of growth at 10 µM,SK-MEL-28,-16.7%
Cc1cc(NCC(=O)Nc2ccc(-c3nc4ccccc4s3)cc2)no1,inhibition of growth at 10 µM,UACC-62,13.5%
same,inhibition of growth at 10 µM,OVCAR-5,-19%
same,inhibition of growth at 10 µM,U-251,11.9%
same,inhibition of growth at 10 µM,SK-MEL-5,12.3%
same,inhibition of growth at 10 µM,RXF 393,-4.8%
same,inhibition of growth at 10 µM,HCT-116,9.26%
same,inhibition of growth at 10 µM,M14,-5.87%
same,inhibition of growth at 10 µM,RPMI-8226,1.57%
same,inhibition of growth at 10 µM,DU-145,4.13%
same,inhibition of growth at 10 µM,CAKI-1,-3.5%
same,inhibition of growth at 10 µM,HT-29,-4.71%
same,inhibition of growth at 10 µM,CCRF-CEM,46.3%
same,inhibition of growth at 10 µM,COLO 205,-7.78%
same,inhibition of growth at 10 µM,MOLT-4,53.2%
same,inhibition of growth at 10 µM,SNB-19,3.47%
same,inhibition of growth at 10 µM,UACC-257,0.29%
same,inhibition of growth at 10 µM,NCI/ADR-RES,-2.68%
same,inhibition of growth at 10 µM,MCF7,64.1%
same,inhibition of growth at 10 µM,HCT-15,9.32%
same,inhibition of growth at 10 µM,NCI-H226,8.98%
same,inhibition of growth at 10 µM,HCC 2998,0.84%
same,inhibition of growth at 10 µM,SK-OV-3,-19.7%
same,inhibition of growth at 10 µM,TK-10,7.91%
same,inhibition of growth at 10 µM,LOX IMVI,143%
same,inhibition of growth at 10 µM,Hs-578T,-1.12%
same,inhibition of growth at 10 µM,HL-60(TB),3.55%
same,inhibition of growth at 10 µM,MDA-MB-468,147%
same,inhibition of growth at 10 µM,HOP-92,-0.34%
same,inhibition of growth at 10 µM,SNB-75,-11.5%
same,inhibition of growth at 10 µM,A549,7.66%
same,inhibition of growth at 10 µM,T47D,19.7%
same,inhibition of growth at 10 µM,PC-3,3.37%
same,inhibition of growth at 10 µM,SR,30.1%
same,inhibition of growth at 10 µM,HOP-62,-10.9%
same,inhibition of growth at 10 µM,SF-295,3.62%
same,inhibition of growth at 10 µM,Malme-3M,10.5%
same,inhibition of growth at 10 µM,OVCAR-3,0.7%
same,inhibition of growth at 10 µM,IGROV-1,11.5%
same,inhibition of growth at 10 µM,SF-268,12.6%
same,inhibition of growth at 10 µM,BT-549,5.29%
same,inhibition of growth at 10 µM,ACHN,-10.7%
same,inhibition of growth at 10 µM,786-0,-1.59%
same,inhibition of growth at 10 µM,OVCAR-4,-10.7%
same,inhibition of growth at 10 µM,SK-MEL-28,-10.5%
